From publication PMC6941823, “A dispensable paralog of succinate dehydrogenase subunit C mediates standing resistance towards a subclass of SDHI fungicides in Zymoseptoria tritici” (PLoS Pathogens, 2019)
Read-outs that look alike come from different tables or passages of the source.

Columns and labels:
[1] = target: WT-SQR (SDHC), IPO323 mitochondria (Zymoseptoria tritici, UniProt F9X9V6+F9XH52+O42772); experiment: Succinate-quinone (SQR) SDHI sensitivity assay on purified mitochondria, IPO323; format: biochemical
Chain of WT-SQR (SDHC), IPO323 mitochondria (F9WWR1 entry or part of it): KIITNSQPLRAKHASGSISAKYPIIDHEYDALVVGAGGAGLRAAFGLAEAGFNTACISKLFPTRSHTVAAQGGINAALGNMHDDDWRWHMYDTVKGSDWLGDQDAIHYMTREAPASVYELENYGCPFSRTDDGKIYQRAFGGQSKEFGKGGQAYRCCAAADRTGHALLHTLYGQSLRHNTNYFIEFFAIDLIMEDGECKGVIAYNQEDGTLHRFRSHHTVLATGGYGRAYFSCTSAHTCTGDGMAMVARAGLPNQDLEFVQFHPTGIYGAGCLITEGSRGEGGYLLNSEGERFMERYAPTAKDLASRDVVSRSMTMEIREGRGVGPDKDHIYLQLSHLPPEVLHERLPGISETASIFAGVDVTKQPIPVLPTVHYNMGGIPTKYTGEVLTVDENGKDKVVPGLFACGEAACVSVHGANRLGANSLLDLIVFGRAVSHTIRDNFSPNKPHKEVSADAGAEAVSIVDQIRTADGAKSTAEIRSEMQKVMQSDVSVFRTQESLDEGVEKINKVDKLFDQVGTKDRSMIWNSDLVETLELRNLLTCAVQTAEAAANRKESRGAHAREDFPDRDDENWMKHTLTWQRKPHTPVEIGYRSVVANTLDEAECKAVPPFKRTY
Chain of WT-SQR (SDHC), IPO323 mitochondria (F9X9V6 entry or part of it): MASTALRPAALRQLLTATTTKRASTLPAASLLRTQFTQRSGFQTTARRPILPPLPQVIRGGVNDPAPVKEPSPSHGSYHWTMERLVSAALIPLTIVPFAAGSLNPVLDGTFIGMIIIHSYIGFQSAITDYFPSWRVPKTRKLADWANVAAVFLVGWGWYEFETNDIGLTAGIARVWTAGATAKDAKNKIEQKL
Chain of WT-SQR (SDHC), IPO323 mitochondria (O42772 19-297): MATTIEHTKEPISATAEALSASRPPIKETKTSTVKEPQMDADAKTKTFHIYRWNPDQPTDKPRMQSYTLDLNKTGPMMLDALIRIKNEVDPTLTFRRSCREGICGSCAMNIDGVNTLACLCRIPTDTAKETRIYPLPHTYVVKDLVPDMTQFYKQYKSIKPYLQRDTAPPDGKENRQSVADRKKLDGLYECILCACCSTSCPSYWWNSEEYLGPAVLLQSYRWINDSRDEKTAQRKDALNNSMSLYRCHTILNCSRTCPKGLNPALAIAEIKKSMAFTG
Chain of WT-SQR (SDHC), IPO323 mitochondria (F9XH52 entry or part of it): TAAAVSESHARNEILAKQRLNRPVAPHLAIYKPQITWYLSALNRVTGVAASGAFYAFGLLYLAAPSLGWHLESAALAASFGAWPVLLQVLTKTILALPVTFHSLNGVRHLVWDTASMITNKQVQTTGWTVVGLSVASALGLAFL
Summary of the method: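 Mitochondria purified from each strain were used for succinate:ubiquinone/DCPIP reductase assays, with suspensions adjusted to similar initial velocity (1 OD595nm hour^-1). Inhibitor was tested at 0.047 nM–50 μM in 4x steps (11 concentrations plus DMSO). IC50 came from non-linear fits of absorbance slopes (OD/min) against log concentration.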

[2] = system: Zymoseptoria tritici progeny isolates; format: cell-based; settings: for phenotype flag S (sensitive): 1 = sensitive; for Phenotype sensitive (S) flag: fluopyram 10 mg.L^-1 agar, 1 in S column; for phenotype flag, sensitive (S): growth on fluopyram 10 mg.L^-1 agar; for phenotype flag, sensitive (S) / Phenotyping Growth Fluopyram 10ppm Sensitive: 1 = scored sensitive; for Phenotype scored sensitive (S): agar growth on fluopyram 10 mg.L^-1, 1 = scored in this class

O=C(NCCc1ncc(C(F)(F)F)cc1Cl)c1ccccc1C(F)(F)F [Fluopyram]
IC50 [1]: 12.5 ± 2 nM
phenotype flag S (sensitive) ([2]; progeny isolate 25, cross IPO323XD024): 1
phenotype flag S (sensitive) ([2]; progeny isolate 27, cross IPO323XD024): 1
phenotype flag S (sensitive) ([2]; progeny isolate 28, cross IPO323XD024): 1
phenotype flag S (sensitive) ([2]; progeny isolate 31, cross IPO323XD024): 1
phenotype flag S (sensitive) ([2]; progeny isolate 32, cross IPO323XD024): 1
phenotype flag S (sensitive) ([2]; progeny isolate 34, cross IPO323XD024): 1
phenotype flag S (sensitive) ([2]; progeny isolate 37, cross IPO323XD024): 1
phenotype flag S (sensitive) ([2]; progeny isolate 39, cross IPO323XD024): 1
phenotype flag S (sensitive) ([2]; progeny isolate 40, cross IPO323XD024): 1
phenotype flag S (sensitive) ([2]; progeny isolate 43, cross IPO323XD024): 1
phenotype flag S (sensitive) ([2]; progeny isolate 46, cross IPO323XD024): 1
phenotype flag S (sensitive) ([2]; progeny isolate 49, cross IPO323XD024): 1
phenotype flag S (sensitive) ([2]; progeny isolate 50, cross IPO323XD024): 1
phenotype flag S (sensitive) ([2]; progeny isolate 51, cross IPO323XD024): 1
phenotype flag S (sensitive) ([2]; progeny isolate 53, cross IPO323XD024): 1
phenotype flag S (sensitive) ([2]; progeny isolate 54, cross IPO323XD024): 1
phenotype flag S (sensitive) ([2]; progeny isolate 55, cross IPO323XD024): 1
phenotype flag S (sensitive) ([2]; progeny isolate 56, cross IPO323XD024): 1
phenotype flag S (sensitive) ([2]; progeny isolate 57, cross IPO323XD024): 1
phenotype flag S (sensitive) ([2]; progeny isolate 59, cross IPO323XD024): 1
phenotype flag S (sensitive) ([2]; progeny isolate 60, cross IPO323XD024): 1
phenotype flag S (sensitive) ([2]; progeny isolate 62, cross IPO323XD024): 1
phenotype flag S (sensitive) ([2]; progeny isolate 63, cross IPO323XD024): 1
phenotype flag S (sensitive) ([2]; progeny isolate 65, cross IPO323XD024): 1
phenotype scored sensitive (S), flag 1 ([2]; progeny isolate 67, cross IPO323XD024, fluopyram 10 mg.L^-1 agar): 1
phenotype scored sensitive (S), flag 1 ([2]; progeny isolate 71, cross IPO323XD024, fluopyram 10 mg.L^-1 agar): 1
phenotype scored sensitive (S), flag 1 ([2]; progeny isolate 72, cross IPO323XD024, fluopyram 10 mg.L^-1 agar): 1
phenotype scored sensitive (S), flag 1 ([2]; progeny isolate 75, cross IPO323XD024, fluopyram 10 mg.L^-1 agar): 1
phenotype scored sensitive (S), flag 1 ([2]; progeny isolate 77, cross IPO323XD024, fluopyram 10 mg.L^-1 agar): 1
phenotype scored sensitive (S), flag 1 ([2]; progeny isolate 78, cross IPO323XD024, fluopyram 10 mg.L^-1 agar): 1
phenotype scored sensitive (S), flag 1 ([2]; progeny isolate 82, cross IPO323XD024, fluopyram 10 mg.L^-1 agar): 1
phenotype scored sensitive (S), flag 1 ([2]; progeny isolate 83, cross IPO323XD024, fluopyram 10 mg.L^-1 agar): 1
phenotype scored sensitive (S), flag 1 ([2]; progeny isolate 84, cross IPO323XD024, fluopyram 10 mg.L^-1 agar): 1
phenotype scored sensitive (S), flag 1 ([2]; progeny isolate 88, cross IPO323XD024, fluopyram 10 mg.L^-1 agar): 1
phenotype scored sensitive (S), flag 1 ([2]; progeny isolate 89, cross IPO323XD024, fluopyram 10 mg.L^-1 agar): 1
phenotype scored sensitive (S), flag 1 ([2]; progeny isolate 90, cross IPO323XD024, fluopyram 10 mg.L^-1 agar): 1
phenotype scored sensitive (S), flag 1 ([2]; progeny isolate 91, cross IPO323XD024, fluopyram 10 mg.L^-1 agar): 1
phenotype scored sensitive (S), flag 1 ([2]; progeny isolate 92, cross IPO323XD024, fluopyram 10 mg.L^-1 agar): 1
phenotype scored sensitive (S), flag 1 ([2]; progeny isolate 102, cross IPO323XD024, fluopyram 10 mg.L^-1 agar): 1
phenotype scored sensitive (S), flag 1 ([2]; progeny isolate 103, cross IPO323XD024, fluopyram 10 mg.L^-1 agar): 1
phenotype scored sensitive (S), flag 1 ([2]; progeny isolate 106, cross IPO323XD024, fluopyram 10 mg.L^-1 agar): 1
phenotype scored sensitive (S), flag 1 ([2]; progeny isolate 107, cross IPO323XD024, fluopyram 10 mg.L^-1 agar): 1
Phenotype sensitive (S) flag ([2]; progeny isolate 150 of cross IPO323XD024): 1
Phenotype sensitive (S) flag ([2]; progeny isolate 151 of cross IPO323XD024): 1
Phenotype sensitive (S) flag ([2]; progeny isolate 152 of cross IPO323XD024): 1
Phenotype sensitive (S) flag ([2]; progeny isolate 153 of cross IPO323XD024): 1
Phenotype sensitive (S) flag ([2]; progeny isolate 155 of cross IPO323XD024): 1
Phenotype sensitive (S) flag ([2]; progeny isolate 156 of cross IPO323XD024): 1
Phenotype sensitive (S) flag ([2]; progeny isolate 158 of cross IPO323XD024): 1
Phenotype sensitive (S) flag ([2]; progeny isolate 161 of cross IPO323XD024): 1
Phenotype sensitive (S) flag ([2]; progeny isolate 162 of cross IPO323XD024): 1
Phenotype sensitive (S) flag ([2]; progeny isolate 163 of cross IPO323XD024): 1
Phenotype sensitive (S) flag ([2]; progeny isolate 166 of cross IPO323XD024): 1
Phenotype sensitive (S) flag ([2]; progeny isolate 168 of cross IPO323XD024): 1
Phenotype sensitive (S) flag ([2]; progeny isolate 169 of cross IPO323XD024): 1
Phenotype sensitive (S) flag ([2]; progeny isolate 173 of cross IPO323XD024): 1
Phenotype sensitive (S) flag ([2]; progeny isolate 174 of cross IPO323XD024): 1
Phenotype sensitive (S) flag ([2]; progeny isolate 175 of cross IPO323XD024): 1
Phenotype sensitive (S) flag ([2]; progeny isolate 176 of cross IPO323XD024): 1
Phenotype sensitive (S) flag ([2]; progeny isolate 177 of cross IPO323XD024): 1
Phenotype sensitive (S) flag ([2]; progeny isolate 182 of cross IPO323XD024): 1
Phenotype sensitive (S) flag ([2]; progeny isolate 184 of cross IPO323XD024): 1
Phenotype sensitive (S) flag ([2]; progeny isolate 185 of cross IPO323XD024): 1
phenotype flag, sensitive (S) ([2]; progeny isolate 192, cross IPO323XD024): 1
phenotype flag, sensitive (S) ([2]; progeny isolate 193, cross IPO323XD024): 1
phenotype flag, sensitive (S) ([2]; progeny isolate 195, cross IPO323XD024): 1
phenotype flag, sensitive (S) ([2]; progeny isolate 197, cross IPO323XD024): 1
phenotype flag, sensitive (S) ([2]; progeny isolate 201, cross IPO323XD024): 1
phenotype flag, sensitive (S) ([2]; progeny isolate 207, cross IPO323XD024): 1
phenotype flag, sensitive (S) ([2]; progeny isolate 209, cross IPO323XD024): 1
phenotype flag, sensitive (S) ([2]; progeny isolate 210, cross IPO323XD024): 1
phenotype flag, sensitive (S) ([2]; progeny isolate 211, cross IPO323XD024): 1
phenotype flag, sensitive (S) ([2]; progeny isolate 215, cross IPO323XD024): 1
phenotype flag, sensitive (S) ([2]; progeny isolate 217, cross IPO323XD024): 1
phenotype flag, sensitive (S) ([2]; progeny isolate 218, cross IPO323XD024): 1
phenotype flag, sensitive (S) ([2]; progeny isolate 220, cross IPO323XD024): 1
phenotype flag, sensitive (S) ([2]; progeny isolate 221, cross IPO323XD024): 1
phenotype flag, sensitive (S) ([2]; progeny isolate 223, cross IPO323XD024): 1
phenotype flag, sensitive (S) ([2]; progeny isolate 224, cross IPO323XD024): 1
phenotype flag, sensitive (S) ([2]; progeny isolate 225, cross IPO323XD024): 1
phenotype flag, sensitive (S) ([2]; progeny isolate 227, cross IPO323XD024): 1
phenotype flag, sensitive (S) ([2]; progeny isolate 228, cross IPO323XD024): 1
phenotype flag, sensitive (S) ([2]; progeny isolate 229, cross IPO323XD024): 1
Phenotype scored sensitive (S) ([2]; progeny isolate 230 of cross IPO323 x D024): 1
Phenotype scored sensitive (S) ([2]; progeny isolate 235 of cross IPO323 x D024): 1
Phenotype scored sensitive (S) ([2]; progeny isolate 237 of cross IPO323 x D024): 1
Phenotype scored sensitive (S) ([2]; progeny isolate 238 of cross IPO323 x D024): 1
Phenotype scored sensitive (S) ([2]; progeny isolate 239 of cross IPO323 x D024): 1
Phenotyping Growth Fluopyram 10ppm Sensitive ([2]; progeny strain 3, cross IPO323XD024): 1
Phenotyping Growth Fluopyram 10ppm Sensitive ([2]; progeny strain 10, cross IPO323XD024): 1
Phenotyping Growth Fluopyram 10ppm Sensitive ([2]; progeny strain 13, cross IPO323XD024): 1
Phenotyping Growth Fluopyram 10ppm Sensitive ([2]; progeny strain 14, cross IPO323XD024): 1
Phenotyping Growth Fluopyram 10ppm Sensitive ([2]; progeny strain 16, cross IPO323XD024): 1
Phenotyping Growth Fluopyram 10ppm Sensitive ([2]; progeny strain 17, cross IPO323XD024): 1
Phenotyping Growth Fluopyram 10ppm Sensitive ([2]; progeny strain 18, cross IPO323XD024): 1
Phenotyping Growth Fluopyram 10ppm Sensitive ([2]; progeny strain 19, cross IPO323XD024): 1
Phenotyping Growth Fluopyram 10ppm Sensitive ([2]; progeny strain 20, cross IPO323XD024): 1
Phenotyping Growth Fluopyram 10ppm Sensitive ([2]; progeny strain 21, cross IPO323XD024): 1
Phenotyping Growth Fluopyram 10ppm Sensitive ([2]; progeny strain 23, cross IPO323XD024): 1
Phenotyping Growth Fluopyram 10ppm Sensitive ([2]; strain D024 (parent), cross IPO323XD024, 0 = not): 0
Phenotyping Growth Fluopyram 10ppm Sensitive ([2]; strain IPO323 (parent), cross IPO323XD024, 0 = not): 1
